From ChEMBL document CHEMBL4507305, “Data for DCP probe TP-024” (2021)

Tests used:
[1] = target: Protein kinase C epsilon type (Homo sapiens) (UniProt Q02156); conditions: Compound concentration 1000.0 nM
[2] = target: NT-3 growth factor receptor (Homo sapiens) (UniProt Q16288); conditions: Compound concentration 1000.0 nM
[3] = target: Serine/threonine-protein kinase ULK2 (Homo sapiens) (UniProt Q8IYT8); conditions: Compound concentration 1000.0 nM
[4] = target: Serine/threonine-protein kinase MAK (Homo sapiens) (UniProt P20794); conditions: Compound concentration 1000.0 nM
[5] = target: Protein kinase C theta type (Homo sapiens) (UniProt Q04759); conditions: Compound concentration 1000.0 nM
[6] = system: Hepatocyte growth factor receptor (Homo sapiens), P08581 [Y1235D]; conditions: Compound concentration 1000.0 nM
[7] = target: Focal adhesion kinase 1 (Homo sapiens) (UniProt Q05397); conditions: Compound concentration 1000.0 nM
[8] = target: 5'-AMP-activated protein kinase catalytic subunit alpha-1 (Homo sapiens) (UniProt Q13131); conditions: Compound concentration 1000.0 nM
[9] = target: Serine/threonine-protein kinase mTOR (Homo sapiens) (UniProt P42345); conditions: Compound concentration 1000.0 nM
[10] = target: Tyrosine-protein kinase Yes (Homo sapiens) (UniProt P07947); conditions: Compound concentration 1000.0 nM
[11] = target: Serine/threonine-protein kinase Sgk3 (Homo sapiens) (UniProt Q96BR1); conditions: Compound concentration 1000.0 nM
Chain of Serine/threonine-protein kinase Sgk3 (Homo sapiens) (Q96BR1 whole entry): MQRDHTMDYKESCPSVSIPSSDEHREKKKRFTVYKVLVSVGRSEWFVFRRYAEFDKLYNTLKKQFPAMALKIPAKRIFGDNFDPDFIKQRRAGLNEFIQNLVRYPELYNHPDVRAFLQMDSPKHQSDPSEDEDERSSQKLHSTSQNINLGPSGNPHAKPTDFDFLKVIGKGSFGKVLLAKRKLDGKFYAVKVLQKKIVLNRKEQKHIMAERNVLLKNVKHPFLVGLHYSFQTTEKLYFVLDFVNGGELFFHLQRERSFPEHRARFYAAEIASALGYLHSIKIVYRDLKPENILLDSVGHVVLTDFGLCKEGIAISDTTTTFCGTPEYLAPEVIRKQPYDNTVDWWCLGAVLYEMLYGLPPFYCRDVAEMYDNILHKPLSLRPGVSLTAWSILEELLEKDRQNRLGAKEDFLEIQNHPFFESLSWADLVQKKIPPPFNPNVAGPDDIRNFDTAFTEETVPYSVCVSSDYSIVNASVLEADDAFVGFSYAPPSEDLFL

[12] = system: Receptor-type tyrosine-protein kinase FLT3 (Homo sapiens), P36888 [N841I]; conditions: Compound concentration 1000.0 nM
[13] = target: Serine/threonine-protein kinase VRK2 (Homo sapiens) (UniProt Q86Y07); conditions: Compound concentration 1000.0 nM
Chain of Serine/threonine-protein kinase VRK2 (Homo sapiens) (Q86Y07 whole entry): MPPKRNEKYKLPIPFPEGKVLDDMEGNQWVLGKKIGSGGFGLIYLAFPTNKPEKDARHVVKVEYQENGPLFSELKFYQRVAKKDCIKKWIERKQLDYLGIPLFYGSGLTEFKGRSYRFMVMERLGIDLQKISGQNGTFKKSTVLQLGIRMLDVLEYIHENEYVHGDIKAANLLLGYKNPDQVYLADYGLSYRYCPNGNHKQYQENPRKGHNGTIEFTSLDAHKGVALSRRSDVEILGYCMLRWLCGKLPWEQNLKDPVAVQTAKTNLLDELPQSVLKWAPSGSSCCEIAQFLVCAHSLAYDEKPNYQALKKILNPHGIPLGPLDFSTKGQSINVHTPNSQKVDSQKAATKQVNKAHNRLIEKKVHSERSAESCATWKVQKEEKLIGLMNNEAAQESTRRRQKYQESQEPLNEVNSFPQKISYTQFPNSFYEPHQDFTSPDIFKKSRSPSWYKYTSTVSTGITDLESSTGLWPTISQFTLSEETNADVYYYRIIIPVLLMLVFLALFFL

[14] = system: Receptor-type tyrosine-protein kinase FLT3 (Homo sapiens), P36888 [UNDEFINED MUTATION]; conditions: Compound concentration 1000.0 nM
[15] = target: Kappa-type opioid receptor (Homo sapiens) (UniProt P41145); conditions: Compound concentration 10.0 uM
[16] = target: Myosin-IIIa (Homo sapiens) (UniProt Q8NEV4); conditions: Compound concentration 1000.0 nM
[17] = target: Serine/threonine-protein kinase Nek5 (Homo sapiens) (UniProt Q6P3R8); conditions: Compound concentration 1000.0 nM
Chain of Serine/threonine-protein kinase Nek5 (Homo sapiens) (Q6P3R8 whole entry): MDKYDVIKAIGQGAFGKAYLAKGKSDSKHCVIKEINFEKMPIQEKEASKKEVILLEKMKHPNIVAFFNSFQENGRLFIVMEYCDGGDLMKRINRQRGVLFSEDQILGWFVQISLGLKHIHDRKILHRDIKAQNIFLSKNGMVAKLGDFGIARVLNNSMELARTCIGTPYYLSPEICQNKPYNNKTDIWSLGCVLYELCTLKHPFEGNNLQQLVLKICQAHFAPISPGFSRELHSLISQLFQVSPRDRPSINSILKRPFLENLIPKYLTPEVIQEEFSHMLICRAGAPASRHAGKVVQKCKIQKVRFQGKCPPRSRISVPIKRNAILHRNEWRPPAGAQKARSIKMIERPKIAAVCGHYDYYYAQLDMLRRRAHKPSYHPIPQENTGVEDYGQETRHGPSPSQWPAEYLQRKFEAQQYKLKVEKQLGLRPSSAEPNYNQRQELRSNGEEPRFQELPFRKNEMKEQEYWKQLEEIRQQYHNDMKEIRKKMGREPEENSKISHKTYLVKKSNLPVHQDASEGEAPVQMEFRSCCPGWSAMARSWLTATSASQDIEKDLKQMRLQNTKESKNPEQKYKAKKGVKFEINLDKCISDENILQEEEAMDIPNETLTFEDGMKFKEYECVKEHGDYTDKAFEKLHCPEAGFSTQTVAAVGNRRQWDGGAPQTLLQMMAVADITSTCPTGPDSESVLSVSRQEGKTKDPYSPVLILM

[18] = target: Myosin light chain kinase, smooth muscle (Homo sapiens) (UniProt Q15746); conditions: Compound concentration 1000.0 nM
[19] = target: Rhodopsin kinase GRK7 (Homo sapiens) (UniProt Q8WTQ7); conditions: Compound concentration 1000.0 nM
[20] = system: Hepatocyte growth factor receptor (Homo sapiens), P08581 [M1250T]; conditions: Compound concentration 1000.0 nM
[21] = target: Mitogen-activated protein kinase 3 (Homo sapiens) (UniProt P27361); conditions: Compound concentration 1000.0 nM
[22] = target: Mitogen-activated protein kinase 9 (Homo sapiens) (UniProt P45984); conditions: Compound concentration 1000.0 nM
[23] = target: Calcium/calmodulin-dependent protein kinase type 1B (Homo sapiens) (UniProt Q6P2M8); conditions: Compound concentration 1000.0 nM
Chain of Calcium/calmodulin-dependent protein kinase type 1B (Homo sapiens) (Q6P2M8 whole entry): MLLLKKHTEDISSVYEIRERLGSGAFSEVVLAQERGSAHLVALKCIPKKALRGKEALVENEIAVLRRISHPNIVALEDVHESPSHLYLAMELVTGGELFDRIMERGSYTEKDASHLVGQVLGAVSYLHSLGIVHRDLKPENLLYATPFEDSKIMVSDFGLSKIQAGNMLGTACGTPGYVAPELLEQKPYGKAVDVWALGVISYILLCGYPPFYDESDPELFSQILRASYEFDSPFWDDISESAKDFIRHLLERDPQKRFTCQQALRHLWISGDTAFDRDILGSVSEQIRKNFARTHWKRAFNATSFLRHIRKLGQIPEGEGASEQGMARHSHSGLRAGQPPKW

[24] = target: Tyrosine-protein kinase SYK (Homo sapiens) (UniProt P43405); conditions: Compound concentration 1000.0 nM
[25] = system: Mast/stem cell growth factor receptor Kit (Homo sapiens), P10721 [D816H]; conditions: Compound concentration 1000.0 nM
[26] = system: ALK tyrosine kinase receptor (Homo sapiens), Q9UM73 [L1196M]; conditions: Compound concentration 1000.0 nM
[27] = target: Serine/threonine-protein kinase ULK1 (Homo sapiens) (UniProt O75385); conditions: Compound concentration 1000.0 nM
[28] = target: Sigma non-opioid intracellular receptor 1 (Homo sapiens) (UniProt Q99720); conditions: Compound concentration 10.0 uM
[29] = target: Serine/threonine-protein kinase PLK1 (Homo sapiens) (UniProt P53350); conditions: Compound concentration 1000.0 nM
[30] = target: Dual serine/threonine and tyrosine protein kinase (Homo sapiens) (UniProt Q6XUX3); conditions: Compound concentration 1000.0 nM
[31] = target: Phosphatidylinositol 4,5-bisphosphate 3-kinase catalytic subunit gamma isoform (Homo sapiens) (UniProt P48736); conditions: Compound concentration 1000.0 nM
[32] = system: Phosphatidylinositol 4,5-bisphosphate 3-kinase catalytic subunit alpha isoform (Homo sapiens), P42336 [H1047Y]; conditions: Compound concentration 1000.0 nM
[33] = target: Non-receptor tyrosine-protein kinase TYK2 (Homo sapiens) (UniProt P29597); conditions: Compound concentration 1000.0 nM
[34] = target: Tyrosine-protein kinase ABL1 (Homo sapiens) (UniProt P00519); conditions: Compound concentration 1000.0 nM
[35] = target: Mitogen-activated protein kinase 1 (Homo sapiens) (UniProt P28482); conditions: Compound concentration 1000.0 nM
[36] = target: Serine/threonine-protein kinase MARK2 (Homo sapiens) (UniProt Q7KZI7); conditions: Compound concentration 1000.0 nM
Chain of Serine/threonine-protein kinase MARK2 (Homo sapiens) (Q7KZI7 whole entry): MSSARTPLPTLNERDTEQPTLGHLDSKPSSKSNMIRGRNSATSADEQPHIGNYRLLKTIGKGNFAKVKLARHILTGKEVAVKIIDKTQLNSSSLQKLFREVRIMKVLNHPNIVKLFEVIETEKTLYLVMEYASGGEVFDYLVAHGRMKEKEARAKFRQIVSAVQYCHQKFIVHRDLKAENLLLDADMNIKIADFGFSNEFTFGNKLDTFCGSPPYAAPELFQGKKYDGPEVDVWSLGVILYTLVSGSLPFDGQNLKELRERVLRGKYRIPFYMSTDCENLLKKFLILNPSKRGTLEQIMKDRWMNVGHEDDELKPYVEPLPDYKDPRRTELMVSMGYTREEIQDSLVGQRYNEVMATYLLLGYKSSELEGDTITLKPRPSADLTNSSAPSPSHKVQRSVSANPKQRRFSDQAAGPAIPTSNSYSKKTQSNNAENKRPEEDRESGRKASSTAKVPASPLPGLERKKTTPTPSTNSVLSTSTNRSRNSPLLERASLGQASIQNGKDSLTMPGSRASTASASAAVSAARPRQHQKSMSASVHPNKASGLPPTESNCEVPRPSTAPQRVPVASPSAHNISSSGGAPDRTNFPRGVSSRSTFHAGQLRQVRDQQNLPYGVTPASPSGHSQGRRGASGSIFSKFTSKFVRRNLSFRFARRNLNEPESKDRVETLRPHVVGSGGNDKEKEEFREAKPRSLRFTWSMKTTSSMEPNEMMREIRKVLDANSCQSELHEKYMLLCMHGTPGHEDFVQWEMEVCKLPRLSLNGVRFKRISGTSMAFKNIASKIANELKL

[37] = target: Tyrosine-protein kinase TXK (Homo sapiens) (UniProt P42681); conditions: Compound concentration 1000.0 nM
[38] = system: Phosphatidylinositol 4,5-bisphosphate 3-kinase catalytic subunit alpha isoform (Homo sapiens), P42336 [H1047L]; conditions: Compound concentration 1000.0 nM
[39] = system: Phosphatidylinositol 4,5-bisphosphate 3-kinase catalytic subunit alpha isoform (Homo sapiens), P42336 [E542K]; conditions: Compound concentration 1000.0 nM
[40] = target: Serine/threonine-protein kinase 24 (Homo sapiens) (UniProt Q9Y6E0); conditions: Compound concentration 1000.0 nM
Chain of Serine/threonine-protein kinase 24 (Homo sapiens) (Q9Y6E0 whole entry, looked up): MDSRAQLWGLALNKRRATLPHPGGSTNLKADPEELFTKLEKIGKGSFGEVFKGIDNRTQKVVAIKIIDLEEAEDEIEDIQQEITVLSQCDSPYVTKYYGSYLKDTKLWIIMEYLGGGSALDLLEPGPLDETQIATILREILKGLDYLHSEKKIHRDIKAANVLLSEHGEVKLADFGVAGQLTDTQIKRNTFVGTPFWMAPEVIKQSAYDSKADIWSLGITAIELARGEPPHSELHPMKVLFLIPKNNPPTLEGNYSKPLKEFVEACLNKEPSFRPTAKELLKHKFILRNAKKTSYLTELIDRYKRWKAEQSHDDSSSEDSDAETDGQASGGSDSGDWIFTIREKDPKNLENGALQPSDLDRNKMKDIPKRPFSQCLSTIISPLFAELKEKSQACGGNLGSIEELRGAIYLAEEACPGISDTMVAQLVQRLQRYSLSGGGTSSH

[41] = target: Tyrosine-protein kinase Lck (Homo sapiens) (UniProt P06239); conditions: Compound concentration 1000.0 nM
[42] = target: Ribosomal protein S6 kinase alpha-3 (Homo sapiens) (UniProt P51812); conditions: Compound concentration 1000.0 nM
[43] = target: Histamine H1 receptor (Homo sapiens) (UniProt P35367); conditions: Compound concentration 10.0 uM
[44] = target: Cyclin-dependent kinase 19 (Homo sapiens) (UniProt Q9BWU1); conditions: Compound concentration 1000.0 nM
[45] = target: cGMP-dependent protein kinase 2 (Homo sapiens) (UniProt Q13237); conditions: Compound concentration 1000.0 nM

Chain of NT-3 growth factor receptor (Homo sapiens) (Q16288 32-839 limits assumed): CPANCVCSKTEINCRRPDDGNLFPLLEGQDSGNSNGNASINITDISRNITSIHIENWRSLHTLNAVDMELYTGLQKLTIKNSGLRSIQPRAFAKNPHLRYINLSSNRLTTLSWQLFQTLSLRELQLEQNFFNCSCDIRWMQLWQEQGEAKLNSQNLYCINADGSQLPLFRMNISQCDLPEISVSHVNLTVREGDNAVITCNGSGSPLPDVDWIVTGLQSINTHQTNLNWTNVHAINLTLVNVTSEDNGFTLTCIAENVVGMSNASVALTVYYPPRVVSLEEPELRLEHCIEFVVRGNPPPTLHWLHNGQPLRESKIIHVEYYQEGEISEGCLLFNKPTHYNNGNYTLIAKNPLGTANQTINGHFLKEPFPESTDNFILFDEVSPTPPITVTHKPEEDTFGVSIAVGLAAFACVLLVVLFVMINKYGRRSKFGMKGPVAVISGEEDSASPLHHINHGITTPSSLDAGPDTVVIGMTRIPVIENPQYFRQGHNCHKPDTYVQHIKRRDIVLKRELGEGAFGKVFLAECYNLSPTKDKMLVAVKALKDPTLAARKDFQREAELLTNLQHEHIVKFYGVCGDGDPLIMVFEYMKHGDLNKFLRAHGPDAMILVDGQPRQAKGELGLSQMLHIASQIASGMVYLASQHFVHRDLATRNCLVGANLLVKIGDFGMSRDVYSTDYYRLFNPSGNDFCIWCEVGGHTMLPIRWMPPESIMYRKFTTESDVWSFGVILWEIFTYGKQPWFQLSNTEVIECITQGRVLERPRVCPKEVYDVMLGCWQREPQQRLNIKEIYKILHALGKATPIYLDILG
Chain of Protein kinase C epsilon type (Homo sapiens) (Q02156 whole entry): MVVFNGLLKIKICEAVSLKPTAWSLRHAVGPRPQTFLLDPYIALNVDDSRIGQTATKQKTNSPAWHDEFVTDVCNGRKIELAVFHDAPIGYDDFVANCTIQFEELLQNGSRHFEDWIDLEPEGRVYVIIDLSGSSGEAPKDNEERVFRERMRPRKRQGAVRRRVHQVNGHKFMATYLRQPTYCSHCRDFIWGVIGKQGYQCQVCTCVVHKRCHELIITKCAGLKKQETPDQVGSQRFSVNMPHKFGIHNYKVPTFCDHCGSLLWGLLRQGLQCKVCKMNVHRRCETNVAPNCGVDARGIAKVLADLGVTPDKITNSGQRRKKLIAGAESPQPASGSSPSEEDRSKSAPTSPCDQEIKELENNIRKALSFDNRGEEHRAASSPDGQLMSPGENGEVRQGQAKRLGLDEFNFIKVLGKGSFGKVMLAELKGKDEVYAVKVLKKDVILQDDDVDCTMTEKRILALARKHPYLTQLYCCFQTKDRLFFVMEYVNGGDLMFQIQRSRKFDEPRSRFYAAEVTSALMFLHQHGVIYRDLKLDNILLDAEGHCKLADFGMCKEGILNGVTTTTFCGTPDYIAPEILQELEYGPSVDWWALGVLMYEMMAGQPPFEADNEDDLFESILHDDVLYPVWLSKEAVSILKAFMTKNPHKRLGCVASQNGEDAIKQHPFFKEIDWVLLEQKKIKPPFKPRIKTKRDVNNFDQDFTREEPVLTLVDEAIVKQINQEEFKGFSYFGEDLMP

## Cc1nc(Cc2cccc(C(F)(F)F)c2)sc1-c1ccc(C(N)=O)nc1 [TP-024n]
[1]
  residual activity: 100%
[2]
  residual activity: 69%
[3]
  residual activity: 100%
[4]
  residual activity: 81%
[5]
  residual activity: 94%
[6]
  residual activity: 91%
[7]
  residual activity: 95%
[8]
  residual activity: 100%
[9]
  residual activity: 87%
[10]
  residual activity: 100%
[11]
  residual activity: 100%
[12]
  residual activity: 86%
[13]
  residual activity: 100%
[14]
  residual activity: 100%
[15]
  inhibition: 3.47%
[16]
  residual activity: 98%
[17]
  residual activity: 35%
[18]
  residual activity: 95%
[19]
  residual activity: 100%
[20]
  residual activity: 92%
[21]
  residual activity: 96%
[22]
  residual activity: 100%
[23]
  residual activity: 100%
[24]
  residual activity: 100%
[25]
  residual activity: 100%
[26]
  residual activity: 100%
[27]
  residual activity: 100%
[28]
  inhibition: 11.7%
[29]
  residual activity: 100%
[30]
  residual activity: 78%
[31]
  residual activity: 78%
[32]
  residual activity: 100%
[33]
  residual activity: 100%
[34]
  residual activity: 95%
[35]
  residual activity: 95%
[36]
  residual activity: 69%
[37]
  residual activity: 70%
[38]
  residual activity: 72%
[39]
  residual activity: 66%
[40]
  residual activity: 100%
[41]
  residual activity: 100%
[42]
  residual activity: 99%
[43]
  inhibition: 9.3%
[44]
  residual activity: 98%
[45]
  residual activity: 84%

## Cc1cc(-n2nc(Cc3cc(F)cc(C(F)(F)F)c3)nc2C)ccc1C(N)=O [TP-024]
[1]
  residual activity: 100%
[2]
  residual activity: 94%
[3]
  residual activity: 100%
[4]
  residual activity: 100%
[5]
  residual activity: 100%
[6]
  residual activity: 90%
[7]
  residual activity: 100%
[8]
  residual activity: 100%
[9]
  residual activity: 78%
[10]
  residual activity: 100%
[11]
  residual activity: 80%
[12]
  residual activity: 99%
[13]
  residual activity: 100%
[14]
  residual activity: 100%
[15]
  inhibition: 16%
[16]
  residual activity: 100%
[17]
  residual activity: 77%
[18]
  residual activity: 100%
[19]
  residual activity: 100%
[20]
  residual activity: 80%
[21]
  residual activity: 100%
[22]
  residual activity: 81%
[23]
  residual activity: 100%
[24]
  residual activity: 87%
[25]
  residual activity: 100%
[26]
  residual activity: 100%
[27]
  residual activity: 100%
[28]
  inhibition: 5.85%
[29]
  residual activity: 100%
[30]
  residual activity: 97%
[31]
  residual activity: 79%
[32]
  residual activity: 78%
[33]
  residual activity: 100%
[34]
  residual activity: 97%
[35]
  residual activity: 100%
[36]
  residual activity: 89%
[37]
  residual activity: 84%
[38]
  residual activity: 87%
[39]
  residual activity: 73%
[40]
  residual activity: 100%
[41]
  residual activity: 100%
[42]
  residual activity: 100%
[43]
  inhibition: 8.06%
[44]
  residual activity: 88%
[45]
  residual activity: 86%
